Reference: ChEMBL document CHEMBL4507263, “Data for DCP probe BAY-474” (2021)

Tests used:
[1] = target: Discoidin domain-containing receptor 2 (Homo sapiens) (UniProt Q16832); assay: DDR2 (h) Millipore kinase activity assay; settings: Compound concentration 1.0 uM
[2] = target: Serine/threonine-protein kinase pim-2 (Homo sapiens) (UniProt Q9P1W9); assay: Pim-2 (h) Millipore kinase activity assay; settings: Compound concentration 1.0 uM
[3] = target: Casein kinase I isoform gamma-3 (Homo sapiens) (UniProt Q9Y6M4); assay: CK1gamma3 (h) Millipore kinase activity assay; settings: Compound concentration 1.0 uM
[4] = target: Protein kinase C delta type (Homo sapiens) (UniProt Q05655); assay: PKCdelta (h) Millipore kinase activity assay; settings: Compound concentration 1.0 uM
[5] = target: Adenosine receptor A1 (Homo sapiens) (UniProt P30542); settings: Compound concentration 10.0 uM
[6] = target: Glutamate NMDA receptor (Rattus norvegicus) (UniProt P35439+Q00959+Q00960+Q00961+Q62645+Q8VHN2+Q9R1M7); settings: Compound concentration 10.0 uM
[7] = target: Substance-P receptor (Homo sapiens) (UniProt P25103); assay: Inhibition of Tachykinin NK1 at 10 µM in the Eurofins-Panlabs radioligand binding assay (Eurofins_assay_255520); set-up: ligand concentration 0.8 nM; settings: Compound concentration 10.0 uM
[8] = target: Serine/threonine-protein kinase PAK 5 (Homo sapiens) (UniProt Q9P286); assay: PAK5 (h) Millipore kinase activity assay; settings: Compound concentration 1.0 uM
[9] = target: Delta-type opioid receptor (Homo sapiens) (UniProt P41143); settings: Compound concentration 10.0 uM
[10] = target: Ephrin type-A receptor 4 (Homo sapiens) (UniProt P54764); assay: EphA4 (h) Millipore kinase activity assay; settings: Compound concentration 1.0 uM
[11] = target: High affinity nerve growth factor receptor (Homo sapiens) (UniProt P04629); assay: TrkA (h) Millipore kinase activity assay; settings: Compound concentration 1.0 uM
[12] = target: Fibroblast growth factor receptor 3 (Homo sapiens) (UniProt P22607); assay: FGFR3 (h) Millipore kinase activity assay; settings: Compound concentration 1.0 uM
[13] = target: RAC-alpha serine/threonine-protein kinase (Homo sapiens) (UniProt P31749); settings: Compound concentration 1000.0 nM
[14] = tested on: Fibroblast growth factor receptor 3 (Homo sapiens), P22607 [G697C]; settings: Compound concentration 1000.0 nM
[15] = target: Inhibitor of nuclear factor kappa-B kinase subunit beta (Homo sapiens) (UniProt O14920); settings: Compound concentration 1000.0 nM
[16] = target: Serine/threonine-protein kinase TAO1 (Homo sapiens) (UniProt Q7L7X3); settings: Compound concentration 1000.0 nM
[17] = target: Serine/threonine-protein kinase 35 (Homo sapiens) (UniProt Q8TDR2); settings: Compound concentration 1000.0 nM
[18] = target: Mitogen-activated protein kinase kinase kinase 7 (Homo sapiens) (UniProt O43318); settings: Compound concentration 1000.0 nM
[19] = target: Ribosomal protein S6 kinase beta-1 (Homo sapiens) (UniProt P23443); settings: Compound concentration 1000.0 nM
[20] = target: Serine/threonine-protein kinase LATS2 (Homo sapiens) (UniProt Q9NRM7); settings: Compound concentration 1000.0 nM
[21] = target: Serine/threonine-protein kinase SIK1 (Homo sapiens) (UniProt P57059); settings: Compound concentration 1000.0 nM
[22] = tested on: ALK tyrosine kinase receptor (Homo sapiens), Q9UM73 [L1196M]; settings: Compound concentration 1000.0 nM
[23] = target: Tyrosine-protein kinase Fyn (Homo sapiens) (UniProt P06241); settings: Compound concentration 1000.0 nM
[24] = target: Tyrosine-protein kinase ZAP-70 (Homo sapiens) (UniProt P43403); settings: Compound concentration 1000.0 nM
[25] = target: Tyrosine-protein kinase CSK (Homo sapiens) (UniProt P41240); settings: Compound concentration 1000.0 nM
[26] = target: Focal adhesion kinase 1 (Homo sapiens) (UniProt Q05397); settings: Compound concentration 1000.0 nM
[27] = tested on: Receptor-type tyrosine-protein kinase FLT3 (Homo sapiens), P36888 [D835Y]; settings: Compound concentration 1000.0 nM
[28] = target: Tyrosine-protein kinase Srms (Homo sapiens) (UniProt Q9H3Y6); settings: Compound concentration 1000.0 nM
[29] = target: Cyclin-dependent kinase 8 (Homo sapiens) (UniProt P49336); settings: Compound concentration 1000.0 nM
[30] = target: Serine/threonine-protein kinase Nek2 (Homo sapiens) (UniProt P51955); settings: Compound concentration 1000.0 nM
[31] = target: Dual specificity mitogen-activated protein kinase kinase 1 (Homo sapiens) (UniProt Q02750); settings: Compound concentration 1000.0 nM
[32] = target: Bone morphogenetic protein receptor type-1B (Homo sapiens) (UniProt O00238); settings: Compound concentration 1000.0 nM
[33] = target: Serine/threonine-protein kinase D1 (Homo sapiens) (UniProt Q15139); settings: Compound concentration 1000.0 nM
[34] = GPCRScan assay: inhibition of GABA/PBR; set-up: species or system Rattus norvegicus; radioligand conc. used [nm] 0.3 – 2.0, parental cells brain tissue
[35] = target: Serine/threonine-protein kinase OSR1 (Homo sapiens) (UniProt O95747); settings: Compound concentration 1000.0 nM
[36] = target: Peripheral plasma membrane protein CASK (Homo sapiens) (UniProt O14936); settings: Compound concentration 1000.0 nM
[37] = target: Platelet-derived growth factor receptor beta (Homo sapiens) (UniProt P09619); settings: Compound concentration 1000.0 nM
[38] = target: Ephrin type-A receptor 1 (Homo sapiens) (UniProt P21709); settings: Compound concentration 1000.0 nM
[39] = target: Serine/threonine-protein kinase Nek11 (Homo sapiens) (UniProt Q8NG66); settings: Compound concentration 1000.0 nM
[40] = tested on: eIF-2-alpha kinase GCN2 (Homo sapiens), Q9P2K8 [S808G]; settings: Compound concentration 1000.0 nM

Sequence of Tyrosine-protein kinase Fyn (Homo sapiens) (P06241 2-537 limits assumed): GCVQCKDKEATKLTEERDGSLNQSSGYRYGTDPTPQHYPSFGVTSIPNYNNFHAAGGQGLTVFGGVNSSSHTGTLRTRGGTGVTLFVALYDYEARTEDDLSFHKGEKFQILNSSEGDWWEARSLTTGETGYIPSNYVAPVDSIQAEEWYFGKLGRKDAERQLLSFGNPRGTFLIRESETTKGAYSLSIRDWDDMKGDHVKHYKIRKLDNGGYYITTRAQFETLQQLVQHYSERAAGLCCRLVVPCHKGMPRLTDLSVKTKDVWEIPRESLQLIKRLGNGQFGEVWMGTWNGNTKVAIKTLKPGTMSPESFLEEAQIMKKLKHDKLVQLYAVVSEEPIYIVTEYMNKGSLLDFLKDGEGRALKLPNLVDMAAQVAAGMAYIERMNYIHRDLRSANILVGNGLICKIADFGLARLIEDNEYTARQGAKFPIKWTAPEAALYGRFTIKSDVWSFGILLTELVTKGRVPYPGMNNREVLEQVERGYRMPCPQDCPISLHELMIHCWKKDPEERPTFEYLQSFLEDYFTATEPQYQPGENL
Sequence of RAC-alpha serine/threonine-protein kinase (Homo sapiens) (P31749 whole entry): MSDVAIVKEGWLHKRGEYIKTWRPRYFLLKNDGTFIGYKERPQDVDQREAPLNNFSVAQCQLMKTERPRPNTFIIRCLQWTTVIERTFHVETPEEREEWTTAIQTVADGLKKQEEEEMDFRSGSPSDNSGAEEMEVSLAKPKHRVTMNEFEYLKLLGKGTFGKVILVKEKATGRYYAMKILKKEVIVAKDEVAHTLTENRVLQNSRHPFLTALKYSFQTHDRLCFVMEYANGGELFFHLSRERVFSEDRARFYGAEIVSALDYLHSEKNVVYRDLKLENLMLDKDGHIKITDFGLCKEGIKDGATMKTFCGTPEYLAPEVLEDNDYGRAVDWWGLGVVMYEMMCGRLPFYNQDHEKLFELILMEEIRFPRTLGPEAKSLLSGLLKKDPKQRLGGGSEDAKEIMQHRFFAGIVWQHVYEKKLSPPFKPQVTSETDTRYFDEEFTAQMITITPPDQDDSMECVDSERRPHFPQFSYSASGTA
Sequence of Bone morphogenetic protein receptor type-1B (Homo sapiens) (O00238 whole entry): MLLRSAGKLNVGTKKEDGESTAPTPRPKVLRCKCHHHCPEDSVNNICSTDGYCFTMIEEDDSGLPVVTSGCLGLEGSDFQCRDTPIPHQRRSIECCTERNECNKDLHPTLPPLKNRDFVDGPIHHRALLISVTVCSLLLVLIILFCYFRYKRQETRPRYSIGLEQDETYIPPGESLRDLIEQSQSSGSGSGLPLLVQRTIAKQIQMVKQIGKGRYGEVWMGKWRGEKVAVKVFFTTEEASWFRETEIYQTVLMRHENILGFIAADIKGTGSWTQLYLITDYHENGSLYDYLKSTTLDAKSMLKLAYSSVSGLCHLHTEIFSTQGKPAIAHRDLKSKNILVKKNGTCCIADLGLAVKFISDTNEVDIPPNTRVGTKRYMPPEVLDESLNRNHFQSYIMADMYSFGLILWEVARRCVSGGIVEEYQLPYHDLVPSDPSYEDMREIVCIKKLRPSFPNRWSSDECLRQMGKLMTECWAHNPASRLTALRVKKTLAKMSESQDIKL
Sequence of Fibroblast growth factor receptor 3 (Homo sapiens), P22607 [G697C] (P22607 whole entry G697C): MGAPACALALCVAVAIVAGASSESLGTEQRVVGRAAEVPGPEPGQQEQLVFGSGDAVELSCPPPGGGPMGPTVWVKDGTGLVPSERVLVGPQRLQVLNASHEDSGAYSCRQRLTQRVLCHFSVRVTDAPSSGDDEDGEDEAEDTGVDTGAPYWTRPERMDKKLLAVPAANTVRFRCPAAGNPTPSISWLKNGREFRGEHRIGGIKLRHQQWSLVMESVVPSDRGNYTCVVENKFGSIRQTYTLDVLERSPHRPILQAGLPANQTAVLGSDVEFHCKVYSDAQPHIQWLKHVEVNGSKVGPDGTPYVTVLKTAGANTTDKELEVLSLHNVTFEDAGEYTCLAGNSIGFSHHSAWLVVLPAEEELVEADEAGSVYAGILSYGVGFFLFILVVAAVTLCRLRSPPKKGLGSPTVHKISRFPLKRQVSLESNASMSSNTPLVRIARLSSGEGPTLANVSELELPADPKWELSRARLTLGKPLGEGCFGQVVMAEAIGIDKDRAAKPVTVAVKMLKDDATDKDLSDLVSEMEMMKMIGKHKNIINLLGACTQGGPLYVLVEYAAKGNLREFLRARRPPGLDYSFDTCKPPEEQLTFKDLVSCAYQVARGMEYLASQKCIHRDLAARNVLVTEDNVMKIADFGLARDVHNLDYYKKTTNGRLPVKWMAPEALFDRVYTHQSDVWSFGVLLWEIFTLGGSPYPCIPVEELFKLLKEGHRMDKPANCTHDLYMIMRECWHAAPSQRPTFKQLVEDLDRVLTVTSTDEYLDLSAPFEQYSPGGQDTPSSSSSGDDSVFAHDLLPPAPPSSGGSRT
Sequence of Serine/threonine-protein kinase TAO1 (Homo sapiens) (Q7L7X3 whole entry): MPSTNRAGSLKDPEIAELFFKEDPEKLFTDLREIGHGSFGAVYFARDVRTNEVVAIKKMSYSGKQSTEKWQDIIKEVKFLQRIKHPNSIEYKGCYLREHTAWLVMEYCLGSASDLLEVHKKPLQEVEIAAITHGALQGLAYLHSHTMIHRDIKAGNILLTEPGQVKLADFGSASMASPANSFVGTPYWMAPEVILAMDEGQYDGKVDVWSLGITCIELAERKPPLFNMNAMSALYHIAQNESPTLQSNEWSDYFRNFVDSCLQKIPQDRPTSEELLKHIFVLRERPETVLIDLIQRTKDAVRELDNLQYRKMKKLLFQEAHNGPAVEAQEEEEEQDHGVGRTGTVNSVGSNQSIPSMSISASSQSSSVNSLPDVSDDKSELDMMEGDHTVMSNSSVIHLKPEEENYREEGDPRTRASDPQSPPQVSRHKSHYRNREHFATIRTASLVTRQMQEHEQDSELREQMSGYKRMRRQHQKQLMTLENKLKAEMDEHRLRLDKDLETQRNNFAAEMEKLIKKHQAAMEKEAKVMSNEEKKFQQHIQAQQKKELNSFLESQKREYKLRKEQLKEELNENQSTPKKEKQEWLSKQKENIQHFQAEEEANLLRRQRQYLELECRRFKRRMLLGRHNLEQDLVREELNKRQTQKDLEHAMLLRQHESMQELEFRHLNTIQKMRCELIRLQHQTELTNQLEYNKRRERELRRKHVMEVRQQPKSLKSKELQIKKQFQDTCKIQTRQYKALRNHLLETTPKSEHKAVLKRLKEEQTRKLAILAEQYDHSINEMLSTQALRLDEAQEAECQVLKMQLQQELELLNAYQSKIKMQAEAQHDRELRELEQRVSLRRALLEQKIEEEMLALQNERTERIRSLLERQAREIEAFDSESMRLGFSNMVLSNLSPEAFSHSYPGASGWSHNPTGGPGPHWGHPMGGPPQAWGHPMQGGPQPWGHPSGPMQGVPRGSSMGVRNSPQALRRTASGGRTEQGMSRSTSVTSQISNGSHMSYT
Sequence of Casein kinase I isoform gamma-3 (Homo sapiens) (Q9Y6M4 whole entry, looked up, canonical isoform): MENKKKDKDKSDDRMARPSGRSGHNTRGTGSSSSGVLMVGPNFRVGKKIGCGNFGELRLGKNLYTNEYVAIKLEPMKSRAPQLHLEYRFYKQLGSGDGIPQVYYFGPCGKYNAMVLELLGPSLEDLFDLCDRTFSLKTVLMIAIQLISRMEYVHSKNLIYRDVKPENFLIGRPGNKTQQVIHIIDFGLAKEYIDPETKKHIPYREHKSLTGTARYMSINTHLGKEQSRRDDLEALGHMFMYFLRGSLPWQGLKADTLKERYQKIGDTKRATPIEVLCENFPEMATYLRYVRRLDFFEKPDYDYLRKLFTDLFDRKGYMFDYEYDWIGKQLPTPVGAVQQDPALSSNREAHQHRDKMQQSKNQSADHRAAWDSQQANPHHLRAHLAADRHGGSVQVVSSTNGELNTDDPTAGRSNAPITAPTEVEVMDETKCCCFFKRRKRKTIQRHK
Sequence of Delta-type opioid receptor (Homo sapiens) (P41143 whole entry): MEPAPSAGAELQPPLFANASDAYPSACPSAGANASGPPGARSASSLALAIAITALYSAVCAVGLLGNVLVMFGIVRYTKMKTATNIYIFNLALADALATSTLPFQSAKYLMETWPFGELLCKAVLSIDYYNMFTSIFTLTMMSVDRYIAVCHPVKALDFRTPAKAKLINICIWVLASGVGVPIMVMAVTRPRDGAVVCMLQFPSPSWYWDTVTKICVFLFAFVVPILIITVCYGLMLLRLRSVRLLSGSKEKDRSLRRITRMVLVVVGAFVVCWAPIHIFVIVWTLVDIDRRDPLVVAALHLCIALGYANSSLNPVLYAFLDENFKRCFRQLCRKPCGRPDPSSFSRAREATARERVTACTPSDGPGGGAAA
Sequence of Tyrosine-protein kinase Srms (Homo sapiens) (Q9H3Y6 whole entry): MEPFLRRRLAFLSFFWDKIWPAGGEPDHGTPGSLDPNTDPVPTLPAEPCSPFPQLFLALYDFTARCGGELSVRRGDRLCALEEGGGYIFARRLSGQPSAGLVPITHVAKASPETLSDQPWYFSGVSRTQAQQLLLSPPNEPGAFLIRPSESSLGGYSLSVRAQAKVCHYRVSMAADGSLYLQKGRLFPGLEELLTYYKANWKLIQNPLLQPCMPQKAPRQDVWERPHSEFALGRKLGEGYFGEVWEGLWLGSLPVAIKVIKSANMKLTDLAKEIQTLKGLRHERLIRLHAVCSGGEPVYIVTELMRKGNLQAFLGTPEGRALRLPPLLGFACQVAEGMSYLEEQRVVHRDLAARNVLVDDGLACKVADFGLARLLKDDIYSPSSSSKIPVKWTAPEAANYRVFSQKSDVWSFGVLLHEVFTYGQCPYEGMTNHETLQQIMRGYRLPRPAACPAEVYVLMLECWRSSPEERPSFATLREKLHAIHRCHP
Sequence of Adenosine receptor A1 (Homo sapiens) (P30542 whole entry): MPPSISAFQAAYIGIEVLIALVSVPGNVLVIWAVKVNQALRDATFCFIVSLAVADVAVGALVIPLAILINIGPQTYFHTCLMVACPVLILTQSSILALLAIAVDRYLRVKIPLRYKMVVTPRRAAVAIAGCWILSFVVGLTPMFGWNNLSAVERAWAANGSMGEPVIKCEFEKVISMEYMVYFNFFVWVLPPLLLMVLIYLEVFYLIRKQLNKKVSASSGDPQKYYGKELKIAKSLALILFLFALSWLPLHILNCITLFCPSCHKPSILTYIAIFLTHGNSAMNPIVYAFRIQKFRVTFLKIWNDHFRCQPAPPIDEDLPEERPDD

CC1=C(C#N)C(c2ccc3[nH]nc(C)c3c2)C(C#N)=C(C)N1 [BAY-474]
inhibition [1]: 12% | inhibition [2]: -3% | inhibition [3]: 21% | inhibition [4]: 2% | inhibition [5]: -2% | inhibition [6]: 9% | inhibition [7]: -4% | inhibition [8]: -4% | inhibition [9]: 9% | inhibition [10]: -5% | inhibition [11]: 27% | inhibition [12]: 10%

CC1=C(C#N)[C@@H](c2ccc3[nH]nc(C)c3c2)C(C#N)=C(c2ccc(Cl)cc2)N1 [BAY-827]
residual activity [13]: 100% | residual activity [14]: 100% | residual activity [15]: 100% | residual activity [16]: 100% | residual activity [17]: 100% | residual activity [18]: 100% | residual activity [19]: 62.2% | residual activity [20]: 100% | residual activity [21]: 100% | residual activity [22]: 100% | residual activity [23]: 69% | residual activity [24]: 85.4% | residual activity [25]: 100% | residual activity [26]: 100% | residual activity [27]: 93.5% | residual activity [28]: 92.7% | residual activity [29]: 93.2% | residual activity [30]: 100% | residual activity [31]: 100% | residual activity [32]: 100% | residual activity [33]: 81.1% | Ki [34]: 2400 nM | pKi [34]: 5.67 | residual activity [35]: 100% | residual activity [36]: 66.2% | residual activity [37]: 100% | residual activity [38]: 100% | residual activity [39]: 62.4% | residual activity [40]: 89.9%
